In US20240358862A1, “Synthesis Method and Application of a Near-infrared Probe GGa-ICG specific binding to PSCA” (Guangzhou Shiyun Biotechnology Co., Ltd, priority 2022, published 2024):

Columns and labels:
PSCA [1] = molecular target: T1, PSCA (Homo sapiens, UniProt O43653); experiment: Pull-down assay; assay type: binding; design: Membrane proteins of PC-3 cells were extracted; endogenous in cells; host or cells: PC-3; conditions: PC-3 membrane proteins, Western blotting with anti-PSCA antibody
T1 sequence (O43653 12-83): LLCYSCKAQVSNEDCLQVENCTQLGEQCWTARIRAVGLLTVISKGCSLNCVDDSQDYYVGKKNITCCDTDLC
Protocol: Membrane proteins of PC-3 cells were extracted and incubated with agarose beads, agarose-conjugated GGa-ICG, or an agarose-conjugated library. The resulting pull-down mixture containing proteins was analyzed by Western blotting using a PSCA-specific antibody. The captured proteins were analyzed by SDS-PAGE gel and Coomassie blue staining, followed by Western blotting using an anti-PSCA antibody.

[2] = Fluorescence stability detection; assay type: physicochemical
Protocol: Stability testing was divided into two groups: 1) stability testing under excitation wavelength and 2) stability testing of GGa-ICG under visible light. Excitation wavelength of 780 nm (GGa-ICG, ssDNA-ICG, and ICG) and visible light were used to excite the fluorescence probe GGa-ICG. Fluorescence detection was performed, and the changes in fluorescence intensity were recorded using a fluorescence spectrophotometer.

PSCA [3] = molecular target: T1, PSCA; experiment: Mass spectrometry analysis of the target protein of GGa-ICG; assay type: binding; design: Membrane proteins of PC-3 cells were extracted; endogenous in cells; host or cells: PC-3; conditions: PC-3 membrane proteins, 35 kDa band
Protocol: PC-3 cells were washed three times with cold PBS buffer and lysed at 4° C. for 30 minutes in 5 mL of low-salt buffer [50 mM Tris-HCl (pH=7.5) containing protease inhibitor (0.1 mM PMSF complex)]. After centrifugation, the pellets were washed 3 times with 5 mL of low-salt buffer and then solubilized in 1.5 mL of lysis buffer (PBS containing 5 mM MgCl2 and 1% Triton X-100) at 4° C. for 30 minutes. The resulting supernatants were separately incubated with beads, ssDNA-ICG, or GGa-ICG at 4° C. for 1 hour. Protein-ssDNA-ICG or protein-GGa-ICG complexes were then captured by incubating them with 2 mg (200 μL) of streptavidin beads at 4° C. for 45 minutes. After centrifugation, the captured proteins were heated and eluted in 30 μL of loading buffer and then analyzed by SDS-PAGE gel and Coomassie blue staining. The protein bands showing significant differences in aptamer purification among different groups were subjected to in situ digestion and analyzed by LC-MS/MS.
Based on the above results, total membrane proteins were extracted from PC-3 cells and incubated with biotinylated GGa-ICG or ssDNA-ICG separately. Then, the binding complex was separated using streptavidin-coated magnetic beads and analyzed by SDS-PAGE gel. A characteristic protein band with a relative molecular weight of 35 kDa was found in the GGa-ICG column, which was digested and analyzed by LC-MS/MS QSTAR.

[4] = Water solubility compared to ICG; assay type: physicochemical
PC-3 cells = experiment: Endocytosis experiment; assay type: cell-based, human; conditions: 37° C. vs 4° C., trypsin wash
Protocol: PC-3 cells were incubated with 200 nM GGa-ICG or ssDNA-ICG in 200 μL binding buffer at 37° C. for 10 minutes to observe cell membrane binding. After 2 hours of incubation, the cells were treated with 0.25% trypsin or 0.1 mg/mL proteinase K at 37° C. for 10 minutes to observe internal binding.
For inhibition of endocytosis, PC-3 cells were incubated with 200 nM GGa-ICG or ssDNA-ICG in 200 μL binding buffer at 4° C. for 2 hours to observe cell membrane binding. After 4 hours of incubation, the cells were treated with 0.25% trypsin or 0.1 mg/mL proteinase K at 37° C. for 10 minutes to observe internal binding.

[5] = Fluorescence depth detection (tissue penetration depth); assay type: physicochemical; conditions: excited at 780 nm, signals detected after 5 minutes
Protocol: The tissue penetration depth of ICG, GGa-ICG, and ssDNA-ICG was detected using a fluorescence spectrometer at depths of 1, 2, 3, 4, and 5 mm. Fluorescence was excited at a wavelength of 780 nm and fluorescence signals were detected after 5 minutes to compare signal-to-noise ratios and observe the fluorescence signal penetration depth.

PC tissues = experiment: GGa-ICG staining of PC clinical tissue sections (confocal fluorescence microscopy); conditions: 200 nM, paraffin sections
Protocol: Methods: Paraffin tissue blocks were provided by the Pathology Department of the Third Affiliated Hospital of Sun Yat-sen University (Guangzhou, China). Tissue sections were deparaffinized twice in xylene for 10 min each time, followed by rehydration in a series of graded ethanol (100%, 95%, and 70%) and rinsed in deionized water. After washing in PBS for 5 min, the sections were incubated in TE buffer (10 mM Tris, 1 mM EDTA, pH=8.0, per liter of ddH2O) and boiled in a microwave oven until boiling, then kept at 95° C. for 15 min to retrieve the antigen. The sections were allowed to cool naturally to room temperature and then washed three times with fresh PBS. After histological processing, tissue sections were incubated with binding buffer containing 20% FBS and 0.1 mg/mL Herring Sperm DNA at room temperature for 60 min, followed by incubation with 200 nM GGa-ICG in the binding buffer at 4° C. for 60 min. The sections were washed three times with fresh PBS, dehydrated, and sealed with Antifade PVA mounting medium. Finally, stained sections were imaged using a spinning disk confocal fluorescence microscope (Olympus IX71, Japan). Adjacent sections were stained with […] HE staining. Fluorescence signals were observed using a 40× objective lens (NA 0.90, UPLSAPO, Olympus, Japan). Images were analyzed using FV10-ASW 3.1 software.

## GGa-ICG: near-infrared probe: PSCA-binding nucleic acid aptamer GGa linked at 3′ to an ICG derivative dye (DNA TGCCACTACAGCTGGTTCGGTTTGGTGACTTCGTTCTTCGTTGTGGT; 3'-ICG dye, further chemistry not given here)
PSCA [1]
  pull-down of PSCA: easily pulled down
[2]; after excitation at 780 nm
  time after which fluorescence was extinguished: 1 h
[2]; visible light, during the detection time
  fluorescence quenching under visible light excitation: did not exhibit fluorescence quenching
PSCA [3]
  target protein hit list by LC-MS/MS: PSCA ranking first
[4]
  water solubility compared to existing ICG: improved
PC-3 cells
  mode of cell entry: enters cells through endocytosis
[5]
  penetration depth: ~6 mm
PC tissues
  binding rate with PC tissues: 82.5%
  fluorescence signal in PC and metastatic tissues: Strong fluorescence signals
  fluorescence signal in normal tissues: No fluorescence signal
